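Compound exposure: 48 hours, 5 concentrations, 96-well plates. TGI is the concentration that stops growth completely.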
Tests used:
Assay in all cases: DTP human tumour cell line panel, 48 h
LXFL 529 NSCLC = system: LXFL 529 NSCLC
OVCAR-8 ovarian = system: OVCAR-8 ovarian
KM20L2 colon = system: KM20L2 colon
HCT-15 colon = system: HCT-15 colon
SW-620 colon = system: SW-620 colon
A498 renal = system: A498 renal
SF-268 CNS = system: SF-268 CNS
HOP-62 NSCLC = system: HOP-62 NSCLC
UACC-257 melanoma = system: UACC-257 melanoma
DMS 273 small cell lung = system: DMS 273 small cell lung
SK-MEL-28 melanoma = system: SK-MEL-28 melanoma
786-0 renal = system: 786-0 renal
UO-31 renal = system: UO-31 renal
UACC-62 melanoma = system: UACC-62 melanoma
NCI-H460 lung = system: NCI-H460 lung
HCT-116 colon = system: HCT-116 colon
RPMI-8226 leukemia = system: RPMI-8226 leukemia
SN12C renal = system: SN12C renal
K-562 leukemia = system: K-562 leukemia
MALME-3M melanoma = system: MALME-3M melanoma
LOX IMVI melanoma = system: LOX IMVI melanoma
SNB-78 CNS = system: SNB-78 CNS
SNB-75 CNS = system: SNB-75 CNS
SF-539 CNS = system: SF-539 CNS
COLO 205 colon = system: COLO 205 colon
KM12 colon = system: KM12 colon
SR leukemia = system: SR leukemia
EKVX NSCLC = system: EKVX NSCLC
NCI-H23 lung = system: NCI-H23 lung
SNB-19 CNS = system: SNB-19 CNS
XF 498 CNS = system: XF 498 CNS
M14 melanoma = system: M14 melanoma
CCRF-CEM leukemia = system: CCRF-CEM leukemia
OVCAR-3 ovarian = system: OVCAR-3 ovarian
OVCAR-5 ovarian = system: OVCAR-5 ovarian
U251 CNS = system: U251 CNS
DMS 114 small cell lung = system: DMS 114 small cell lung
HCC-2998 colon = system: HCC-2998 colon
HL-60(TB) leukemia = system: HL-60(TB) leukemia
CAKI-1 renal = system: CAKI-1 renal
M19-MEL melanoma = system: M19-MEL melanoma
SK-MEL-2 melanoma = system: SK-MEL-2 melanoma
A549 NSCLC = system: A549 NSCLC
MOLT-4 leukemia = system: MOLT-4 leukemia
HOP-92 NSCLC = system: HOP-92 NSCLC
ACHN renal = system: ACHN renal
TK-10 renal = system: TK-10 renal
SK-MEL-5 melanoma = system: SK-MEL-5 melanoma
OVCAR-4 ovarian = system: OVCAR-4 ovarian
NCI-H522 lung = system: NCI-H522 lung
DLD-1 colon = system: DLD-1 colon
SF-295 CNS = system: SF-295 CNS
RXF 393 renal = system: RXF 393 renal
HT29 colon = system: HT29 colon
NCI-H226 lung = system: NCI-H226 lung
SK-OV-3 ovarian = system: SK-OV-3 ovarian
IGROV1 ovarian = system: IGROV1 ovarian
RXF-631 renal = system: RXF-631 renal
HOP-18 NSCLC = system: HOP-18 NSCLC

Measured: TGI

CC(C)OP(=O)(OC(C)C)/C(Cl)=N/Nc1ccc([N+](=O)[O-])cc1
not listed: SF-295 CNS | RXF 393 renal | HT29 colon | NCI-H226 lung | SK-OV-3 ovarian | IGROV1 ovarian | RXF-631 renal | HOP-18 NSCLC
> 100 µM: all other assays above

CN1C(=O)CCC1(O)C1C=CC=CC1 (centres undefined)
not listed: A498 renal | EKVX NSCLC | SK-MEL-2 melanoma | HOP-92 NSCLC | HOP-18 NSCLC
> 100 µM: all other assays above

Cc1cc(NCCCCCCCCNc2cc(C)nc3cc(N)ccc23)c2ccc(N)cc2n1
30.8 µM: CCRF-CEM leukemia | DMS 114 small cell lung | NCI-H522 lung
49.5 µM: NCI-H460 lung
35.6 µM: M14 melanoma
75.1 µM: HOP-62 NSCLC
45.4 µM: SNB-19 CNS
16.3 µM: K-562 leukemia
93.3 µM: NCI-H226 lung
38.4 µM: UACC-62 melanoma
52.1 µM: OVCAR-8 ovarian
45.3 µM: M19-MEL melanoma
45.2 µM: LXFL 529 NSCLC
34.8 µM: SK-MEL-5 melanoma
52.8 µM: NCI-H23 lung
61 µM: EKVX NSCLC
37.4 µM: OVCAR-3 ovarian
42 µM: SF-295 CNS
41.2 µM: SF-539 CNS
40.1 µM: LOX IMVI melanoma
75 µM: HT29 colon
69.1 µM: SNB-75 CNS
35.5 µM: UACC-257 melanoma
38.8 µM: HCC-2998 colon
24.3 µM: U251 CNS
4.88 µM: HL-60(TB) leukemia
48.8 µM: KM20L2 colon
31.2 µM: COLO 205 colon
37.8 µM: KM12 colon
40.4 µM: SK-MEL-2 melanoma
48.3 µM: SK-MEL-28 melanoma
53.7 µM: 786-0 renal
28.9 µM: DMS 273 small cell lung
not listed: SW-620 colon | HCT-116 colon | MALME-3M melanoma | SNB-78 CNS | XF 498 CNS | HOP-92 NSCLC | IGROV1 ovarian | RXF-631 renal | HOP-18 NSCLC
> 100 µM: all other assays above

O=C(/C=C/c1cc(Cl)cc(Cl)c1O)c1cccc(O)c1
46.6 µM: MOLT-4 leukemia
30.6 µM: NCI-H226 lung
87.3 µM: MALME-3M melanoma
61.7 µM: SK-MEL-2 melanoma
84.9 µM: HOP-92 NSCLC
94.4 µM: SNB-75 CNS
73.3 µM: SF-539 CNS
59.8 µM: SR leukemia
28.3 µM: OVCAR-5 ovarian
32.7 µM: COLO 205 colon
93.9 µM: HL-60(TB) leukemia
68.7 µM: M19-MEL melanoma
27.7 µM: SN12C renal
80.4 µM: U251 CNS
25.5 µM: LOX IMVI melanoma
28.5 µM: SF-295 CNS
not listed: XF 498 CNS | RXF-631 renal
> 100 µM: all other assays above

O=c1ccc2nc3cc(Br)ccc3sc-2c1
72.5 µM: CCRF-CEM leukemia
37.5 µM: HL-60(TB) leukemia
not listed: OVCAR-8 ovarian | A498 renal | 786-0 renal | RPMI-8226 leukemia | LOX IMVI melanoma | XF 498 CNS | RXF 393 renal | RXF-631 renal | HOP-18 NSCLC
> 100 µM: all other assays above

N#Cc1cccc2c1Nc1ccccc1S2
92.3 µM: HOP-92 NSCLC
not listed: LXFL 529 NSCLC | RXF-631 renal
> 100 µM: all other assays above

CN(CCN1C(=O)c2cc([N+](=O)[O-])cc3cc([N+](=O)[O-])cc(c23)C1=O)CCN1C(=O)c2cc([N+](=O)[O-])cc3cc([N+](=O)[O-])cc(c23)C1=O
> 58.8 µM: SF-539 CNS
23.8 µM: HCC-2998 colon
23.1 µM: XF 498 CNS
0.618 µM: CAKI-1 renal
4.4 µM: M19-MEL melanoma
1.44 µM: LOX IMVI melanoma
5.51 µM: IGROV1 ovarian
16.7 µM: SW-620 colon
13.7 µM: 786-0 renal
18.8 µM: DLD-1 colon
> 71.5 µM: SK-OV-3 ovarian
20.1 µM: LXFL 529 NSCLC
1.86 µM: NCI-H522 lung
9.69 µM: NCI-H226 lung
0.536 µM: HL-60(TB) leukemia
> 20.8 µM: UO-31 renal
27.9 µM: NCI-H23 lung
> 35 µM: KM12 colon
29.6 µM: OVCAR-8 ovarian
2.2 µM: HOP-92 NSCLC
8.49 µM: SK-MEL-5 melanoma
> 33.5 µM: KM20L2 colon
1.04 µM: RXF 393 renal
9.23 µM: M14 melanoma
> 21.2 µM: RPMI-8226 leukemia
20.3 µM: SK-MEL-28 melanoma
9.42 µM: UACC-257 melanoma
> 45.6 µM: OVCAR-5 ovarian
5.21 µM: SK-MEL-2 melanoma
8.65 µM: HCT-15 colon
18.4 µM: DMS 273 small cell lung
> 28 µM: OVCAR-3 ovarian
5.91 µM: SNB-78 CNS
46.9 µM: DMS 114 small cell lung
4.31 µM: MALME-3M melanoma
14 µM: COLO 205 colon
4.03 µM: CCRF-CEM leukemia
9.18 µM: HCT-116 colon
3.8 µM: UACC-62 melanoma
not listed: NCI-H460 lung | SR leukemia | MOLT-4 leukemia | RXF-631 renal
> 100 µM: all other assays above

Source: PubChem BioAssay (NCI)
